For 23 compounds, MIC and ED50 results are on record in patent publication EP0750618B1, “OXAZOLIDINONE DERIVATIVES AND PHARMACEUTICAL COMPOSITIONS CONTAINING THEM” (priority 1994, dated 1995).

The subject of experiment [1] is Staphylococcus epidermidis (UC 12084). Briefly: MIC test, standard agar dilution method. The format is cell-based. Particulars: UC12084, incubated overnight at 35°C, read-out: Minimum Inhibitory Concentrations (MIC) S. enidermidis. Background: In agar dilution the substance is mixed into plates at graded concentrations.
The test system of experiment [2] is Staphylococcus aureus (UC 9213). Put plainly: Murine Assay procedure (in vivo), survival after intraperitoneal infection. Particulars: UC9213, 144 h, oral administration one hour and five hours after infection, female mice infected i.p. with S. aureus UC 9213, survival over six days, probit analysis. The protocol:
Groups of female mice (six mice of 18-20 grams each) were injected intraperitoneally with Staphylococcus aureus (UC 9213) bacteria which were thawed just prior to use and suspended in brain heart infusion with 4% brewer's yeast (Staphylococcus aureus) or brain heart infusion (Streptococcus species). Antibiotic treatment at six dose levels per drug (compound) was administered one hour and five hours after infection by either oral intubation or subcutaneous routes. Survival was observed daily for six days. ED50 values based on mortality ratios were calculated using probit analysis.

The test system of a further experiment is Staphylococcus aureus. Briefly: MIC test, standard agar dilution method.
Experiment [3] has as its system Streptococcus pyogenes (UC 152). Briefly: MIC test, standard agar dilution method. As to conditions: UC152, read-out: Minimum Inhibitory Concentrations (MIC) S. pyogenes.
Experiment [4] concerns Mycobacterium tuberculosis. Put plainly: MIC test, standard agar dilution method. The format is cell-based. As to conditions: read-out: Minimum Inhibitory Concentrations (MIC) M. tuberculosis.
[5] abbreviates: UC9213, read-out: Minimum Inhibitory Concentrations (MIC) S. aureus.
The mark [6] stands for this setting: UC9218, read-out: Minimum Inhibitory Concentrations (MIC) S. aureus.

≈ marks a conversion by molar mass, not a printed value. Like-named read-outs stand apart in the source and are kept apart here.

Usually ED50 stands for the midpoint of the dose-response relation.

Turning to `CC(=O)NC[C@H]1CN(c2ccc(N3CCC(=NO)CC3)c(F)c2)C(=O)O1` [Compound No. 11, (S)-N-{3-[3-fluoro-4-(4-hydroxyimino-piperidin-1-yl)-phenyl]-2-oxo-oxazolidin-5-ylmethyl}-acetamide], the MIC stood at 1 µg/mL (≈ 2.74 µM) in experiment [1], 2 µg/mL (≈ 5.49 µM) in the experiment with Staphylococcus aureus (setting [5]) and 1 µg/mL (≈ 2.74 µM) in experiment [3]. Besides, the 50% effect level in experiment [2] (ED50) was put at a dose of 8.2 mg/kg.
With `CCOC(=O)C1CCN(c2ccc(N3C[C@H](CNC(C)=O)OC3=O)cc2F)CC1` [Compound No. 1, (S)-1-{4-[5-(acetylamino-methyl)-2-oxo-oxazolidin-3-yl]-2-fluoro-phenyl}-piperidine-4-carboxylic acid ethyl ester], the MIC in experiment [1] stood at 2 µg/mL (≈ 4.91 µM); in experiment [4], 1 µg/mL (≈ 2.45 µM); in the experiment on Staphylococcus aureus (setting [6]) it was 8 µg/mL (≈ 19.6 µM); in experiment [3], 2 µg/mL (≈ 4.91 µM).
On to `CC(=O)NC[C@H]1CN(c2ccc(N3CCC(O)CC3)c(F)c2)C(=O)O1` [Compound No. 3, (S)-N-{3-[3-fluoro-4-(4-hydroxy-piperidin-1-yl)-phenyl]-2-oxo-oxazolidin-5-ylmethyl}-acetamide], for which the MIC in experiment [1] was 2 µg/mL (≈ 5.69 µM); in experiment [4] it was 1 µg/mL (≈ 2.85 µM); in the experiment with Staphylococcus aureus (setting [5]) it was 8 µg/mL (≈ 22.8 µM); in experiment [3], 2 µg/mL (≈ 5.69 µM).
For `COCOCC1COC2(CCN(c3ccc(N4C[C@H](CNC(C)=O)OC4=O)cc3F)CC2)O1` (stereo partly drawn) [compound 57, (S)-N-(3-{3-fluoro-4-[2-(methoxymethoxy-methyl)-1,4-dioxa-8-aza-spiro[4.5]dec-8-yl]-phenyl}-2-oxo-oxazolidin-5-ylmethyl)-acetamide], the results for the MIC (in experiment [1]; with Staphylococcus aureus (setting [5]); in experiment [3]) were 4 µg/mL (≈ 8.56 µM), 16 µg/mL (≈ 34.2 µM) and 8 µg/mL (≈ 17.1 µM), respectively.
The like results for `CC(=O)NC[C@H]1CN(c2ccc(N3CCC(=NOC(=O)COCc4ccccc4)CC3)c(F)c2)C(=O)O1` [compound 45, (S)-N-{3-[3-fluoro-4-(4-benzyloxyacetoxyimino-piperidin-1-yl)-phenyl]-2-oxo-oxazolidin-5-ylmethyl}-acetamide] were, in that order, 0.5 µg/mL (≈ 0.976 µM), 2 µg/mL (≈ 3.9 µM) and 2 µg/mL (≈ 3.9 µM).
`CC(=O)NC[C@H]1CN(c2ccc(N3CCC(C4(CO)OCCO4)CC3)c(F)c2)C(=O)O1` [Compound No. 44, (S)-N-(3-{3-fluoro-4-[4-(2-hydroxymethyl-[1,3]dioxolan-2-yl)-piperidin-1-yl]-phenyl}-2-oxo-oxazolidin-5-ylmethyl)-acetamide]: the values for the MIC (in experiment [1]; with Staphylococcus aureus (setting [5]); in experiment [3]) were 2 µg/mL (≈ 4.57 µM), 16 µg/mL (≈ 36.6 µM) and 24 µg/mL (≈ 54.9 µM), respectively.
For the compound `C=CCON=C1CCN(c2ccc(N3C[C@H](CNC(C)=O)OC3=O)cc2F)CC1` [Compound No. 58, (S)-N-{3-[4-(4-allyloxyimino-piperidin-1-yl)-3-fluoro-phenyl]-2-oxo-oxazolidin-5-ylmethyl}-acetamide], the figures for the MIC (in experiment [1]; with Staphylococcus aureus (setting [5]); in experiment [3]) were 1 µg/mL (≈ 2.47 µM), 8 µg/mL (≈ 19.8 µM) and 2 µg/mL (≈ 4.95 µM), respectively.
The like results for `CC(=O)NC[C@H]1CN(c2ccc(N3CCC4(CC3)OCCN4C(=O)CO)c(F)c2)C(=O)O1` [Compound No. 54, (S)-N-(3-{3-fluoro-4-[4-(2-hydroxy-acetyl)-1-oxa-4,8-diaza-spiro[4.5]dec-8-yl]-phenyl}-2-oxo-oxazolidin-5-ylmethyl)-acetamide] were, in that order, 4 µg/mL (≈ 8.88 µM), 16 µg/mL (≈ 35.5 µM) and 4 µg/mL (≈ 8.88 µM).
The like results for `CC(=O)NC[C@H]1CN(c2ccc(N3CCC(=NNC(=O)CO)CC3)c(F)c2)C(=O)O1` [compound 50, (S)-N-[3-(3-fluoro-4-{4-[(2-hydroxy-acetyl)-hydrazono]-piperidin-1-yl}-phenyl)-2-oxo-oxazolidin-5-ylmethyl]-acetamide] were, in that order, 4 µg/mL (≈ 9.49 µM), 16 µg/mL (≈ 38 µM) and 4 µg/mL (≈ 9.49 µM).
Take `COC(=O)NC1CCN(c2ccc(N3C[C@H](CNC(C)=O)OC3=O)cc2F)CC1` [Compound No. 30, (S)-N-{3-[3-fluoro-4-(4-methoxycarbonylamino-piperidin-1-yl)-phenyl]-2-oxo-oxazolidin-5-ylmethyl}-acetamide]: the MIC came to 2 µg/mL (≈ 4.9 µM) in experiment [1], 4 µg/mL (≈ 9.79 µM) in the experiment with Staphylococcus aureus (setting [5]) and 2 µg/mL (≈ 4.9 µM) in experiment [3]. For the same compound, the ED50 in experiment [2] came out at 2.8 mg/kg.
As for `COC(=O)CON=C1CCN(c2ccc(N3C[C@H](CNC(C)=O)OC3=O)cc2F)CC1` [compound 47, (S)-(1-{4-[5-(acetylamino-methyl)-2-oxo-oxazolidin-3-yl]-2-fluoro-phenyl}-piperidin-4-ylideneaminooxy)-acetic acid methyl ester], the MIC stood at 1 µg/mL (≈ 2.29 µM) in experiment [1], 8 µg/mL (≈ 18.3 µM) in the experiment on Staphylococcus aureus (setting [5]) and 2 µg/mL (≈ 4.58 µM) in experiment [3].
For the compound `CC(=O)NC[C@H]1CN(c2ccc(N3CCC(=NN4CCOCC4)CC3)c(F)c2)C(=O)O1` [compound 40, (S)-N-(3-{3-fluoro-4-[4-(morpholin-4-ylimino)-piperidin-1-yl]-phenyl}-2-oxo-oxazolidin-5-ylmethyl)-acetamide], the results for the MIC (in experiment [1]; in the experiment with Staphylococcus aureus (setting [5]); in experiment [3]) were 0.5 µg/mL (≈ 1.15 µM), 4 µg/mL (≈ 9.23 µM) and 2 µg/mL (≈ 4.61 µM), respectively.
The like results for `CC(=O)NC[C@H]1CN(c2ccc(N3CCC(=NNCCO)CC3)c(F)c2)C(=O)O1` [compound 41, (S)-N-[3-(3-fluoro-4-{4-[(2-hydroxy-ethyl)-hydrazono]-piperidin-1-yl}-phenyl)-2-oxo-oxazolidin-5-ylmethyl]-acetamide] were, in that order, 0.5 µg/mL (≈ 1.23 µM), 4 µg/mL (≈ 9.82 µM) and 1 µg/mL (≈ 2.45 µM).
Turning to `CC(=O)NC[C@H]1CN(c2ccc(N3CCC(=O)CC3)c(F)c2)C(=O)O1` [Compound No. 7, (S)-N-{3-[3-fluoro-4-(4-oxo-piperidin-1-yl)-phenyl]-2-oxo-oxazolidin-5-ylmethyl}-acetamide], the MIC worked out at 0.5 µg/mL (≈ 1.43 µM) in experiment [1], 2 µg/mL (≈ 5.72 µM) in the experiment on Staphylococcus aureus (setting [5]) and 2 µg/mL (≈ 5.72 µM) in experiment [3]. In experiment [2], this compound gave an ED50 of 8.1 mg/kg.
As to `CN[C@H](CC(C)C)C(=O)N[C@H]1C(=O)N[C@@H](CC(N)=O)C(=O)N[C@H]2C(=O)N[C@H]3C(=O)N[C@H](C(=O)N[C@H](C(=O)O)c4cc(O)cc(O)c4-c4cc3ccc4O)[C@H](O)c3ccc(c(Cl)c3)Oc3cc2cc(c3O[C@@H]2O[C@H](CO)[C@@H](O)[C@H](O)[C@H]2O[C@H]2C[C@](C)(N)[C@H](O)[C@H](C)O2)Oc2ccc(cc2Cl)[C@H]1O` [Vancomycin, reference compound], the figures for the MIC (in experiment [1]; with Staphylococcus aureus (setting [5]); in experiment [3]) were 2 µg/mL (≈ 1.38 µM), 1 µg/mL (≈ 0.69 µM) and 0.5 µg/mL (≈ 0.345 µM), respectively.
In the case of `CC(=O)NC[C@H]1CN(c2ccc(N3CCC4(CC3)OCCO4)c(F)c2)C(=O)O1` [compound 28, (S)-N-{3-[4-(1,4-dioxa-8-aza-sprio[4.5]dec-8-yl)-3-fluoro-phenyl]-2-oxo-oxazolidin-5-ylmethyl}-acetamide], the figures for the MIC (in experiment [1]; with Staphylococcus aureus (setting [5]); in experiment [3]) were 2 µg/mL (≈ 5.08 µM), 8 µg/mL (≈ 20.3 µM) and 4 µg/mL (≈ 10.2 µM), respectively.
Take `CC(=O)NC[C@H]1CN(c2ccc(N3CCC(N(C)C)CC3)c(F)c2)C(=O)O1` [Compound No. 67, (S)-N-{3-[4-(4-dimethylamino-piperidin-1-yl)-3-fluoro-phenyl]-2-oxo-oxazolidin-5-ylmethyl}-acetamide]: the MIC in experiment [1] was 2 µg/mL (≈ 5.28 µM); in the experiment with Staphylococcus aureus (setting [5]), 32 µg/mL (≈ 84.6 µM); in experiment [3], 1 µg/mL (≈ 2.64 µM).
Take `CC(=O)NC[C@H]1CN(c2ccc(N3CCC(C(C)=O)CC3)c(F)c2)C(=O)O1` [compound 36, (S)-N-{3-[4-(4-acetyl-piperidin-1-yl)-3-fluoro-phenyl]-2-oxo-oxazolidin-5-ylmethyl}-acetamide]: the MIC was found to be 1 µg/mL (≈ 2.65 µM) in experiment [1], 4 µg/mL (≈ 10.6 µM) in the experiment on Staphylococcus aureus (setting [5]) and 2 µg/mL (≈ 5.3 µM) in experiment [3].
As to `CC(=O)NC[C@H]1CN(c2ccc(N3CCC(=NOCCO)CC3)c(F)c2)C(=O)O1` [compound 48, (S)-N-(3-{3-fluoro-4-[4-(2-hydroxy-ethoxyimino)-piperidin-1-yl]-phenyl}-2-oxo-oxazolidin-5-ylmethyl)-acetamide], the MIC in experiment [1] amounted to 1 µg/mL (≈ 2.45 µM); in the experiment on Staphylococcus aureus (setting [5]), 8 µg/mL (≈ 19.6 µM); in experiment [3] it was 2 µg/mL (≈ 4.9 µM).
As to `COC(=O)NN=C1CCN(c2ccc(N3C[C@H](CNC(C)=O)OC3=O)cc2F)CC1` [Compound No. 31, (S)-N-{3-[3-fluoro-4-(4-methoxycarbonylhydrazono-piperidin-1-yl)-phenyl]-2-oxo-oxazolidin-5-ylmethyl}-acetamide], the MIC in experiment [1] turned out to be 0.5 µg/mL (≈ 1.19 µM); in the experiment with Staphylococcus aureus (setting [5]) it was 2 µg/mL (≈ 4.75 µM); in experiment [3], 1 µg/mL (≈ 2.37 µM). This compound also registered an ED50 in experiment [2] of 5 mg/kg.
On to `COCOC1CCN(c2ccc(N3C[C@H](CNC(C)=O)OC3=O)cc2F)CC1` [compound 27, (S)-N-{3-[3-fluoro-4-(4-methoxymethoxy-piperidin-1-yl)-phenyl]-2-oxo-oxazolidin-5-ylmethyl}-acetamide], for which the figures for the MIC (in experiment [1]; in the experiment with Staphylococcus aureus (setting [5]); in experiment [3]) were 2 µg/mL (≈ 5.06 µM), 8 µg/mL (≈ 20.2 µM) and 8 µg/mL (≈ 20.2 µM), respectively.
As for `CC(=O)NC[C@H]1CN(c2ccc(N3CCCCC3)c(F)c2)C(=O)O1` [Compound No. 2, (S)-N-[3-(3-fluoro-4-piperidin-1-yl-phenyl)-2-oxo-oxazolidin-5-ylmethyl]-acetamide], the MIC in experiment [1] stood at 1 µg/mL (≈ 2.98 µM); with Staphylococcus aureus (setting [6]) it was 8 µg/mL (≈ 23.9 µM); in experiment [3], 4 µg/mL (≈ 11.9 µM).
With `CON=C1CCN(c2ccc(N3C[C@H](CNC(C)=O)OC3=O)cc2F)CC1` [Compound No. 29, (S)-N-{3-[3-fluoro-4-(4-methoxyimino-piperidin-1-yl)-phenyl]-2-oxo-oxazolidin-5-ylmethyl}-acetamide], the MIC amounted to 1 µg/mL (≈ 2.64 µM) in experiment [1], 4 µg/mL (≈ 10.6 µM) with Staphylococcus aureus (setting [5]) and 4 µg/mL (≈ 10.6 µM) in experiment [3].
